Earlier results on one molecule are cited in patent US6689905B2, “Stereoisomers of 3-aminotricyclo[2.2.1.0(2.6)]heptane-1,3-dicarboxylic acid” (Wyeth, priority 2001, dated 2004).

For the data set, the target named is type 2 mGlu receptors (Homo sapiens, UniProt Q14416). The note with it: literature description.

Molecules are shown by their SMILES.

Chain of type 2 mGlu receptors (Q14416 19-872): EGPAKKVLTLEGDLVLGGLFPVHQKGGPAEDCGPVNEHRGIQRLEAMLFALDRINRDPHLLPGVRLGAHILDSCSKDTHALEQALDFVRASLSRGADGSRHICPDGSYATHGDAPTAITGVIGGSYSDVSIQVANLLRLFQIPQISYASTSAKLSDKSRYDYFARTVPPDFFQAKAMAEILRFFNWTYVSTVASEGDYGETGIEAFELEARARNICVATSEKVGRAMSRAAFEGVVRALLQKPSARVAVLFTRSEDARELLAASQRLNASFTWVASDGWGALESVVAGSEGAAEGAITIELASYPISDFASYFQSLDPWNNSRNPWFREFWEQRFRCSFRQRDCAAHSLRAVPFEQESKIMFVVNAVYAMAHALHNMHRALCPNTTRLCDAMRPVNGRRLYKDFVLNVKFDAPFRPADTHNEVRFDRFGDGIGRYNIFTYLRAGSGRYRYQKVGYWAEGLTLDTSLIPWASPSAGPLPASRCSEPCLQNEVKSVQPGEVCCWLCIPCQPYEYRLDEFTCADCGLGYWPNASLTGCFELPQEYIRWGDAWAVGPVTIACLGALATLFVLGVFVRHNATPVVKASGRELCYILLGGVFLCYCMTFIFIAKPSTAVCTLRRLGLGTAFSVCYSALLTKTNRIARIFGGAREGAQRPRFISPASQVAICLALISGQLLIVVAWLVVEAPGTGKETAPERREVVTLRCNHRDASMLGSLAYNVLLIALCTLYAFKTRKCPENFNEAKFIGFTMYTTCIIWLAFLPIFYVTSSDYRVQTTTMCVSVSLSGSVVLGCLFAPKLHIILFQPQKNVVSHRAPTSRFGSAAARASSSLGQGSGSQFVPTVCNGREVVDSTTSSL

Regarding `NC1(C(=O)O)CC2CCC1C2C(=O)O` (stereo not drawn) [ABHD-I, 2-endo-aminobicyclo[2.2.1]heptane-2-exo-7-anti-dicarboxylic acid], the “functional character at type 2 mGlu receptors” value is on record as “agonists”.
